Laboratory results: article PMC7689923 (ACS Omega, 2020)
Values after ≈ are worked out from the molar mass of the structure shown. Values joined by “and” are separate entries in the source; they are usually repeats but may differ in a detail not shown here. Equal entries are not always repeated.

Assays:
KasA [1] = biological target: T1, KasA (Mycobacterium tuberculosis, UniProt P9WQD9); test: biochemical; type: binding; conditions: for KasA binding via MST (in words): at the concentrations tested
T1 sequence (P9WQD9 1-416): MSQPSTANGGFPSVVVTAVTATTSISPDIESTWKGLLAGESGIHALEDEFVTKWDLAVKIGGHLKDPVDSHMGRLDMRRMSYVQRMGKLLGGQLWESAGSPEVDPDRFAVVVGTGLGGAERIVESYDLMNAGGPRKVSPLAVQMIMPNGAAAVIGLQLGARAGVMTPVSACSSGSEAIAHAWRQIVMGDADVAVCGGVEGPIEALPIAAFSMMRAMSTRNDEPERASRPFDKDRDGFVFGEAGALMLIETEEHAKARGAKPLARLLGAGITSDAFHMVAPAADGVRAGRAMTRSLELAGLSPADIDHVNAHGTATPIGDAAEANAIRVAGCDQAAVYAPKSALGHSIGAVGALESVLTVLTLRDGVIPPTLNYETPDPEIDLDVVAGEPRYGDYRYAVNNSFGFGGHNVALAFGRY

KasA [2] = biological target: T1, KasA; test: Thermal shift experiments using nanoDSF; type: binding
KasA [3] = biological target: T1, KasA; conditions: binder of KasA; cited from earlier work
Mtb = conditions: cited from earlier work

Structure (SMILES) | Kd (KasA [1]) | KasA binding via MST (in words) (KasA [1]) | change in Tm (in words) (KasA [2]) | EC50 (KasA [3]) [µM] | minimum inhibitor concentration (MIC) (Mtb) [M] | MIC (Mtb; Mtb inhibitor) [µM]
CCCNC(=O)NS(=O)(=O)c1ccc(Cl)cc1 [Chlorpropamide] | 90.6 µM and > 90 µM | showed binding to KasA | did not show significant changes in Tm |  |  | 
CCCCS(=O)(=O)Nc1ccc2cnn(C)c2c1 [DG167] |  |  |  | 0.131 ± 0.0182 | 0.39 | 
COC(=O)Nc1nc2cc(C(=O)c3ccc(F)cc3)ccc2[nH]1 [Flubendazole, flubendazole] | 38.5 µM and 30 to 40 µM | showed binding to KasA | did not show significant changes in Tm |  |  | 
CC[C@H](C)C(=O)O[C@H]1C[C@@H](C)C=C2C=C[C@H](C)[C@H](CC[C@@H]3C[C@@H](O)CC(=O)O3)[C@H]21 [Lovastatin, lovastatin] | 224 µM and > 90 µM | showed binding to KasA | did not show significant changes in Tm |  |  | 
CCCc1nn(C)c2c(=O)[nH]c(-c3cc(S(=O)(=O)N4CCN(C)CC4)ccc3OCC)nc12 [Sildenafil, sildenafil] | 32.5 µM and 30 to 40 µM |  |  |  |  | 
Oc1cc(Cl)ccc1Oc1ccc(Cl)cc1Cl [Triclosan, triclosan] |  |  |  |  |  | 12.5 (≈ 3.62 µg/mL)
